Values of other authors as cited in PMC10535842, “Novel Thiazole-Based SIRT2 Inhibitors Discovered via Molecular Modelling Studies and Enzymatic Assays” (Pharmaceuticals, 2023).
pIC50: −log10 of the molar value. “And” between values parts separate entries of the source, which are not always exact repeats. Equal entries are not always repeated.

system: SIRT2; details: substrate RHKK(Ac)-AMC; read-out: SIRT2 IC50 (series B, compounds 27-111); cited from earlier work

| SMILES | pIC50 |
| --- | --- |
| O=c1c2c3c(sc2ncn1Cc1cccc2cccnc12)CC(NC1CCCc2ccccc21)CC3 (stereo not shown) [Compound 107] | 5.26 |
| O=c1c2c3c(sc2ncn1Cc1ccc2ccccc2c1)CC(NCc1cncnc1)CC3 (stereo not shown) [Compound 85] | 5.28 |
| O=c1c2c3c(sc2ncn1Cc1ccc2ccccc2c1)CC(NCc1ccccn1)CC3 (stereo not shown) [Compound 72] | 5.06 |
| COc1ccc(Cn2cnc3sc4c(c3c2=O)CCC(NCc2c(C)noc2C)C4)c2ccccc12 (stereo not shown) [Compound 36] | > 6.00 |
| COc1ccc2ccccc2c1Cn1cnc2sc3c(c2c1=O)CCC(NC1CCCC1)C3 (stereo not shown) [Compound 97] | 5.93 |
| O=c1c2c3c(sc2ncn1Cc1cccc2cccnc12)CC(NC1CCc2ccccc21)CC3 (stereo not shown) [Compound 105] | 5.51 |
| Cc1noc(C)c1CNC1CCc2c(sc3ncn(Cc4cccc5ccccc45)c(=O)c23)C1 (stereo not shown) [Compound 35] | 5.73 |
| O=c1c2c3c(sc2ncn1Cc1ccc2ccccc2c1)CC(NCc1ccco1)CC3 (stereo not shown) [Compound 29] | 4.93 |
| O=c1c2c3c(sc2ncn1Cc1ccc2ccccc2c1)CC(NCC1CCCCC1)CC3 (stereo not shown) [Compound 87] | 5.26 |
| O=c1c2c3c(sc2ncn1Cc1cccc2ccccc12)CC(NCc1cncnc1)CC3 (stereo not shown) [Compound 84] | 5.19 |
| COc1ccc2ccccc2c1Cn1cnc2sc3c(c2c1=O)CCC(NCc1ccncc1)C3 (stereo not shown) [Compound 66] | 5.92 |
| O=c1c2c3c(sc2ncn1Cc1ccc2ccccc2c1)CC(NCCc1cccnc1)CC3 (stereo not shown) [Compound 80] | 5.06 |
| O=c1c2c3c(sc2ncn1Cc1ccc2ccccc2c1)CC(NCc1ccncc1)CC3 (stereo not shown) [Compound 68] | 5.50 |
| COc1ccc(Cn2cnc3sc4c(c3c2=O)CCC(NC2CCOCC2)C4)c2ccccc12 (stereo not shown) [Compound 101] | 5.30 |
| COc1ccc2ccccc2c1Cn1cnc2sc3c(c2c1=O)CCC(NC1CCOCC1)C3 (stereo not shown) [Compound 100] | 5.95 |
| O=c1c2c3c(sc2ncn1Cc1cccc2cccnc12)CC(NCc1ccccc1Cl)CC3 (stereo not shown) [Compound 48] | 5.42 |
| COc1ccc(CNC2CCc3c(sc4ncn(Cc5cccc6cccnc56)c(=O)c34)C2)cc1 (stereo not shown) [Compound 59] | 5.74 |
| COc1ccc2ccccc2c1Cn1cnc2sc3c(c2c1=O)CCC(NCCc1ccncc1)C3 (stereo not shown) [Compound 81] | 5.56 |
| O=c1c2c3c(sc2ncn1Cc1ccc2ccccc2c1)CC(NCC1CCCO1)CC3 (stereo not shown) [Compound 92] | 4.88 |
| O=c1c2c3c(sc2ncn1Cc1cccc(-c2ccccc2)c1)CC(NCCC1CCCCC1)CC3 (stereo not shown) [Compound 96] | 5.43 |
| COc1ccccc1CNC1CCc2c(sc3ncn(Cc4ccc5ccccc5c4)c(=O)c23)C1 (stereo not shown) [Compound 51] | 5.37 |

| SMILES | pIC50 |
| --- | --- |
| O=c1c2c3c(sc2ncn1Cc1cccc(-c2ccccc2)c1)CC(NCC1CCOC1)CC3 (stereo not shown) [Compound 94] | 5.59 |
| COc1ccccc1CNC1CCc2c(sc3ncn(Cc4cccc5cccnc45)c(=O)c23)C1 (stereo not shown) [Compound 52] | 5.25 |
| COc1ccc(CNC2CCc3c(sc4ncn(Cc5cccc6ccccc56)c(=O)c34)C2)cc1 (stereo not shown) [Compound 57] | 5.49 |
| COc1ccc2ccccc2c1Cn1cnc2sc(CCNCc3cccnc3)c(C)c2c1=O [Compound 109] | 5.67 |
| Cc1nn(C)c(C)c1CNC1CCc2c(sc3ncn(Cc4ccc5ccccc5c4)c(=O)c23)C1 (stereo not shown) [Compound 33] | 5.13 |
| O=c1c2c3c(sc2ncn1Cc1cccc(-c2ccccc2)c1)CC(NCCN1CCOCC1)CC3 (stereo not shown) [Compound 103] | 5.50 |
| COc1ccc(CNC2CCc3c(sc4ncn(Cc5cccc6ccccc56)c(=O)c34)C2)cn1 (stereo not shown) [Compound 75] | 5.12 |
| Cc1ccc(NC2CCc3c(sc4ncn(Cc5cccc6cccnc56)c(=O)c34)C2)cc1 (stereo not shown) [Compound 61] | 5.37 |
| COc1ccc(CNC2CCc3c(sc4ncn(Cc5c(OC)ccc6ccccc56)c(=O)c34)C2)cc1 (stereo not shown) [Compound 56] | > 6.00 and 6.19 |
| COc1ccc(CNCCc2sc3ncn(Cc4c(OC)ccc5ccccc45)c(=O)c3c2C)cc1 [Compound 108] | 5.47 |
| O=c1c2c3c(sc2ncn1Cc1cccc2ccccc12)CC(NCc1ccco1)CC3 (stereo not shown) [Compound 28] | 5.12 |
| O=c1c2c3c(sc2ncn1Cc1ccc2ccccc2c1)CC(NCCc1ccncc1)CC3 (stereo not shown) [Compound 83] | 5.02 |
| COc1ccc2ccccc2c1Cn1cnc2sc(CCNCc3ccncc3)c(C)c2c1=O [Compound 110] | 5.53 |
| O=c1c2c3c(sc2ncn1Cc1cccc(-c2ccccc2)c1)CC(NC1CCOCC1)CC3 (stereo not shown) [Compound 102] | 5.76 |
| COc1ccc2ccccc2c1Cn1cnc2sc(CCNC3CCOCC3)c(C)c2c1=O [Compound 111] | 5.09 |
| O=c1c2c3c(sc2ncn1Cc1cccc2cccnc12)CC(NCc1ccccc1)CC3 (stereo not shown) [Compound 42] | 5.60 |
| O=c1c2c3c(sc2ncn1Cc1cccc2cccnc12)CC(Nc1ccc(F)cc1)CC3 (stereo not shown) [Compound 62] | > 6.00 and 6.01 |
| COc1ccccc1CNC1CCc2c(sc3ncn(Cc4ccccc4OC)c(=O)c23)C1 (stereo not shown) [Compound 53] | 5.02 |
| O=c1c2c3c(sc2ncn1Cc1cccc2cccnc12)CC(NCC1CCCCC1)CC3 (stereo not shown) [Compound 88] | 5.61 |
| COc1ccccc1Cn1cnc2sc3c(c2c1=O)CCC(NCC1CCCCC1)C3 (stereo not shown) [Compound 89] | 5.04 |
| O=c1c2c3c(sc2ncn1Cc1cccc(-c2ccccc2)c1)CC(NC1CCCC1)CC3 (stereo not shown) [Compound 99] | 5.82 |

| SMILES | pIC50 |
| --- | --- |
| O=c1c2c3c(sc2ncn1Cc1cccc2cccnc12)CC(NCc1cccc(Cl)c1)CC3 (stereo not shown) [Compound 46] | 5.55 |
| COc1ccc2ccccc2c1Cn1cnc2sc3c(c2c1=O)CCC(NCC1CCCCC1)C3 (stereo not shown) [Compound 86] | 5.78 |
| COc1ccc2ccccc2c1Cn1cnc2sc3c(c2c1=O)CCC(NCC1CCCO1)C3 (stereo not shown) [Compound 90] | 5.72 |
| COc1ccc2ccccc2c1Cn1cnc2sc3c(c2c1=O)CCC(NCc1c(C)nn(C)c1C)C3 (stereo not shown) [Compound 31] | 5.29 |
| COc1ccc(CNC2CCc3c(sc4ncn(Cc5ccc6ccccc6c5)c(=O)c34)C2)cn1 (stereo not shown) [Compound 76] | 4.99 |
| COc1ccc(CNC2CCc3c(sc4ncn(Cc5ccc6ccccc6c5)c(=O)c34)C2)cc1 (stereo not shown) [Compound 58] | 5.42 |
| O=c1c2c3c(sc2ncn1Cc1cccc2cccnc12)CC(NCc1cccnc1)CC3 (stereo not shown) [Compound 65] | 5.53 |
| Cc1nn(C)c(C)c1CNC1CCc2c(sc3ncn(Cc4cccc5ccccc45)c(=O)c23)C1 (stereo not shown) [Compound 32] | 5.38 |
| COc1ccc2ccccc2c1Cn1cnc2sc3c(c2c1=O)CCC(NCc1c(C)noc1C)C3 (stereo not shown) [Compound 34] | 5.40 |
| O=c1c2c3c(sc2ncn1Cc1ccc2ccccc2c1)CC(NCc1ccccc1)CC3 (stereo not shown) [Compound 41] | 5.26 |
| COc1ccc2ccccc2c1Cn1cnc2sc3c(c2c1=O)CCC(NCc1cccnc1)C3 (stereo not shown) [Compound 63] | 5.84 |
| COc1cccc(CNC2CCc3c(sc4ncn(Cc5ccccc5OC)c(=O)c34)C2)c1 (stereo not shown) [Compound 55] | 4.87 |
| COc1ccc2ccccc2c1Cn1cnc2sc3c(c2c1=O)CCC(NCCc1cccnc1)C3 (stereo not shown) [Compound 78] | 4.99 |
| O=c1c2c3c(sc2ncn1Cc1cccc2ccccc12)CC(NCc1ccncc1)CC3 (stereo not shown) [Compound 67] | 5.45 |
| O=c1c2c3c(sc2ncn1Cc1cccc2cccnc12)CC(NCc1cccs1)CC3 (stereo not shown) [Compound 39] | 5.59 |
| O=c1c2c3c(sc2ncn1Cc1cccc2cccnc12)CC(NCc1ccncc1)CC3 (stereo not shown) [Compound 69] | 5.43 |
| COc1ccc(CNC2CCc3c(sc4ncn(Cc5c(OC)ccc6ccccc56)c(=O)c34)C2)cn1 (stereo not shown) [Compound 74] | 5.72 |
| O=c1c2c3c(sc2ncn1Cc1cccc2ccccc12)CC(NCc1ccccn1)CC3 (stereo not shown) [Compound 71] | 5.11 |
| O=c1c2c3c(sc2ncn1Cc1cccc2ccccc12)CC(NCc1cccnc1)CC3 (stereo not shown) [Compound 64] | 5.52 |
| COc1ccc2ccccc2c1Cn1cnc2sc3c(c2c1=O)CCC(NCc1cccc(F)c1)C3 (stereo not shown) [Compound 44] | 5.39 |
| COc1ccc2ccccc2c1Cn1cnc2sc3c(c2c1=O)CCC(NCC1CCOC1)C3 (stereo not shown) [Compound 93] | 5.22 |

| SMILES | pIC50 |
| --- | --- |
| COc1cccc(CNC2CCc3c(sc4ncn(Cc5c(OC)ccc6ccccc56)c(=O)c34)C2)c1 (stereo not shown) [Compound 54] | 5.72 |
| COc1ccc(Cn2cnc3sc4c(c3c2=O)CCC(NC2CCCC2)C4)c2ccccc12 (stereo not shown) [Compound 98] | 6.14 and > 6.00 |
| O=c1c2c3c(sc2ncn1Cc1cccc2cccnc12)CC(NCc1ccc(Cl)cc1)CC3 (stereo not shown) [Compound 47] | 5.90 |
| COc1ccc2ccccc2c1Cn1cnc2sc3c(c2c1=O)CCC(NCc1ccccn1)C3 (stereo not shown) [Compound 70] | 5.51 |
| O=c1c2c3c(sc2ncn1Cc1cccc2ccccc12)CC(NCCc1ccncc1)CC3 (stereo not shown) [Compound 82] | 5.24 |
| O=c1c2c3c(sc2ncn1Cc1cccc2ccccc12)CC(NCC1CCCO1)CC3 (stereo not shown) [Compound 91] | 4.90 |
| O=c1c2c3c(sc2ncn1Cc1cccc2cccnc12)CC(NCc1cccc(F)c1)CC3 (stereo not shown) [Compound 45] | 5.76 |
| COc1ccccc1Cn1cnc2sc3c(c2c1=O)CCC(NC1CCc2ccccc21)C3 (stereo not shown) [Compound 106] | 4.79 |
| COc1ccc(CNC2CCc3c(sc4ncn(Cc5cccc6cccnc56)c(=O)c34)C2)cn1 (stereo not shown) [Compound 77] | 5.58 |
| O=c1c2c3c(sc2ncn1Cc1cccc(-c2ccccc2)c1)CC(NCCN1CCCC1)CC3 (stereo not shown) [Compound 104] | 5.42 |
| COc1ccccc1Cn1cnc2sc3c(c2c1=O)CCC(NCc1ccccc1)C3 (stereo not shown) [Compound 43] | 4.98 |
| COc1ccc(NC2CCc3c(sc4ncn(Cc5cccc6cccnc56)c(=O)c34)C2)cc1 (stereo not shown) [Compound 60] | 5.61 |
| COc1ccc2ccccc2c1Cn1cnc2sc3c(c2c1=O)CCC(NCc1cccs1)C3 (stereo not shown) [Compound 38] | 5.22 |
| O=c1c2c3c(sc2ncn1Cc1cccc2cccnc12)CC(NCc1ccco1)CC3 (stereo not shown) [Compound 30] | 5.38 |
| COc1ccc2ccccc2c1Cn1cnc2sc3c(c2c1=O)CCC(NCc1ccccc1)C3 (stereo not shown) [Compound 40] | 4.68 |
| O=c1c2c3c(sc2ncn1Cc1cccc2ccccc12)CC(NCCc1cccnc1)CC3 (stereo not shown) [Compound 79] | 5.02 |
| COc1ccccc1CNC1CCc2c(sc3ncn(Cc4c(OC)ccc5ccccc45)c(=O)c23)C1 (stereo not shown) [Compound 50] | 5.65 |
| Cc1noc(C)c1CNC1CCc2c(sc3ncn(Cc4cccc5cccnc45)c(=O)c23)C1 (stereo not shown) [Compound 37] | 5.16 |
| COc1ccc2ccccc2c1Cn1cnc2sc3c(c2c1=O)CCC(NCc1ccco1)C3 (stereo not shown) [Compound 27] | 5.28 |
